In the NIST ThermoML archive (doi:10.1021/je800964k):

Conditions: Liquid, Hot wire method

COC [dimethyl ether]
Conditions | thermal conductivity [W/m/K]
234.04 K, 5100 kPa | 0.1561
234.2 K, 600 kPa | 0.1534
234.29 K, 600 kPa | 0.153
234.33 K, 10000 kPa | 0.16
234.43 K, 29800 kPa | 0.1704
234.44 K, 30000 kPa | 0.1709
234.58 K, 600 kPa | 0.1538
234.66 K, 5300 kPa | 0.1568
234.7 K, 20200 kPa | 0.1655
234.71 K, 10400 kPa | 0.1605
234.72 K, 5300 kPa | 0.1562
234.79 K, 30100 kPa | 0.1703
235 K, 20100 kPa | 0.1654
235.27 K, 20200 kPa | 0.1655
235.32 K, 10700 kPa | 0.1598
253.99 K, 10200 kPa | 0.1528
254.02 K, 600 kPa | 0.1422
254.11 K, 20400 kPa | 0.1582
254.12 K, 30200 kPa | 0.1633
254.16 K, 600 kPa | 0.1427
254.2 K, 20100 kPa | 0.1579
254.22 K, 10400 kPa | 0.1529
254.34 K, 30300 kPa | 0.1643
254.37 K, 20100 kPa | 0.1583
254.42 K, 600 kPa | 0.1427
254.42 K, 5100 kPa | 0.1467
254.81 K, 10100 kPa | 0.1522
254.88 K, 5100 kPa | 0.1466
255.08 K, 5000 kPa | 0.1471
257.35 K, 29900 kPa | 0.164
273.93 K, 5000 kPa | 0.1396
274.08 K, 5100 kPa | 0.1396
274.48 K, 5000 kPa | 0.1404
274.56 K, 29800 kPa | 0.1585
274.57 K, 30400 kPa | 0.1579
274.6 K, 20000 kPa | 0.1523
274.9 K, 10500 kPa | 0.1456
274.9 K, 20300 kPa | 0.1522
275.12 K, 20300 kPa | 0.1523
275.22 K, 10200 kPa | 0.1452
275.3 K, 30600 kPa | 0.1582
275.31 K, 700 kPa | 0.1342
275.74 K, 700 kPa | 0.1343
276.02 K, 10500 kPa | 0.1459
276.44 K, 700 kPa | 0.1347
293.79 K, 5100 kPa | 0.1305
293.8 K, 800 kPa | 0.1249
294.15 K, 800 kPa | 0.1252
294.16 K, 10000 kPa | 0.1362
294.22 K, 10200 kPa | 0.1364
294.3 K, 29800 kPa | 0.1495
294.45 K, 800 kPa | 0.1248
294.45 K, 4900 kPa | 0.1305
294.59 K, 29900 kPa | 0.1486
294.68 K, 20600 kPa | 0.1417
294.84 K, 5200 kPa | 0.1307
295.13 K, 20300 kPa | 0.1417
295.22 K, 10000 kPa | 0.1356
296.32 K, 20200 kPa | 0.1415
314.01 K, 5100 kPa | 0.1191
314.06 K, 1000 kPa | 0.1143
314.11 K, 5200 kPa | 0.1189
314.39 K, 1000 kPa | 0.1145
314.39 K, 5100 kPa | 0.1195
314.43 K, 10200 kPa | 0.1242
314.6 K, 30100 kPa | 0.1385
314.66 K, 1000 kPa | 0.1137
314.81 K, 10200 kPa | 0.1241
314.88 K, 30000 kPa | 0.1382
315.01 K, 20400 kPa | 0.1313
315.06 K, 10100 kPa | 0.1242
315.07 K, 20100 kPa | 0.1318
315.37 K, 30400 kPa | 0.1384
315.55 K, 20000 kPa | 0.1318
333.73 K, 1500 kPa | 0.1079
333.92 K, 5200 kPa | 0.1113
334.03 K, 1500 kPa | 0.1075
334.09 K, 30000 kPa | 0.1283
334.31 K, 20200 kPa | 0.1229
334.38 K, 30100 kPa | 0.1287
334.47 K, 1500 kPa | 0.1078
334.55 K, 5100 kPa | 0.1108
334.7 K, 10200 kPa | 0.1156
334.79 K, 20200 kPa | 0.1224
334.85 K, 5200 kPa | 0.1116
334.9 K, 30200 kPa | 0.1288
334.91 K, 10200 kPa | 0.1154
335.09 K, 30400 kPa | 0.1294
335.29 K, 20100 kPa | 0.1228
335.37 K, 10100 kPa | 0.1151
335.72 K, 20000 kPa | 0.1223
335.76 K, 10300 kPa | 0.1146
353.73 K, 10300 kPa | 0.1059
353.93 K, 30500 kPa | 0.1206
353.97 K, 30100 kPa | 0.1208
354.06 K, 10200 kPa | 0.1053
354.1 K, 20400 kPa | 0.1145
354.15 K, 5800 kPa | 0.0998
354.21 K, 2300 kPa | 0.0973
354.29 K, 5300 kPa | 0.1005
354.45 K, 2300 kPa | 0.097
354.59 K, 30100 kPa | 0.1208
354.86 K, 2300 kPa | 0.0971
354.97 K, 5200 kPa | 0.1
355.08 K, 20000 kPa | 0.1141
355.18 K, 2300 kPa | 0.0971
355.36 K, 20100 kPa | 0.1142
355.46 K, 5200 kPa | 0.1012
374.25 K, 10700 kPa | 0.0988
374.25 K, 20500 kPa | 0.1071
374.3 K, 30400 kPa | 0.1129
374.62 K, 30300 kPa | 0.1133
374.81 K, 29900 kPa | 0.1135
374.85 K, 3300 kPa | 0.0871
374.85 K, 5100 kPa | 0.0908
374.91 K, 5000 kPa | 0.0908
375.13 K, 3300 kPa | 0.0869
375.27 K, 5000 kPa | 0.0911
375.38 K, 3300 kPa | 0.0867
375.68 K, 20200 kPa | 0.1065
376.02 K, 20000 kPa | 0.1065
376.38 K, 10600 kPa | 0.0976
